Measurements as given in US11111222B2, “Hydroxyeicosatrienoic acid compounds and their use as therapeutic agents” (THE REGENTS OF THE UNIVERSITY OF MICHIGAN, priority 2016, dated 2021).

Tests used:
Gαs = test: [35S]GTPγS binding to immunoprecipitated Gαs, platelet membranes; type: biochemical; details: human platelet membranes, vs DMSO
Experimental: PRP was isolated from whole blood as described above and then incubated with 1 mM aspirin for 1 hour at 37° C. Platelets were pelleted at 2000 g for 10 min in the presence of 10×ACD and apyrase. The pelleted platelets were washed with Tyrode's and centrifuged at 2000×g with 10×ACD for 10 min at room temperature. The platelets were flash frozen with liquid nitrogen and then resuspended in cold detergent-free TME buffer (50 mM Tris-HCl, pH 7.5, 20 mM MgCl2, 2 mM EDTA, and 100 mM NaCl) with 1 μM GDP and protease and phosphatase inhibitors to lyse the platelets. The lysed platelets were centrifuged at 1500 g at 4° C. for 5 min. The supernatant was collected and centrifuged at 100,000×g for 30 min at 4° C. The pelleted membranes were resuspended in TME buffer with 1 μM GDP and stored at −80° C. prior to use. Fatty acid metabolites, agonists, or DMSO and [^35S]GTPγS (10 nM) were added to platelet membranes (60 μg/reaction) on ice, and the tubes were immediately transferred to a 30° C. water bath shaker for 20 min. The reaction was terminated by the addition of ice-cold IP buffer (50 mM Tris-HCl, pH 7.5, 20 mM MgCl2, 150 mM NaCl, 0.5% Nonidet P-40, 0.33% aprotinin, 0.1 mM GDP, and 0.1 mM GTP). The samples were pre-cleared with Protein A agarose beads and normal rabbit IgG for 30 min on a nutator at 4° C. and then aliquoted equally into two tubes containing either normal rabbit IgG or a Gs antibody that had been conjugated to Protein A agarose beads. The samples were incubated on a nutator for 1 hr at 4° C. and washed 4 times with IP buffer and 1 time in TME buffer. The samples were boiled in 0.5% SDS for 30 sec, and the supernatants were collected following brief centrifugation. The supernatants were analyzed in 8 mL of scintillation fluid. The background counts for the normal rabbit IgG (50-200 cpm) for each sample were subtracted from the anti-Gs immunoprecipitated samples prior to analyzing the data.

washed human platelets = test: Human platelet aggregation after pre-treatment with adenylyl cyclase inhibitor SQ 22536; type: cell-based; details: platelets pre-treated with SQ 22536 (25 μM, 20 min); iloprost 0.2 to 0.4 nM, 1 min; EC80 PAR4-AP
Experimental: Blood from healthy donors was collected into vacutainers containing buffered sodium citrate, and platelets were isolated by serial centrifugation as described above for mouse platelets. The platelets were resuspended in Tyrode's buffer at 3×10^8 platelets/mL, unless otherwise specified.
A lumi-aggregometer (Chrono-log model 700D) was used to measure platelet aggregation under stirring conditions (1100 rpm) at 37° C. […]

[1] = test system: washed platelets from WT or 12-LOX−/− mice; test: Platelet aggregation, washed murine platelets (lumi-aggregometer); type: cell-based, mouse; details: 10 min
Experimental: The 12-LOX null C57BL/6 (12-LOX^−/−) mice were generated using homozygous breeding pairs and wild-type (WT) C57BL/6 ([…]) mice were purchased (Jackson Laboratory). […] Mouse blood was diluted with equal volumes of Tyrode's buffer (10 mM HEPES, 11.9 mM sodium bicarbonate, 127.2 mM sodium chloride, 5 mM potassium chloride, 0.4 mM sodium phosphate monobasic, 1 mM magnesium chloride, and 5 mM D-glucose) and centrifuged at 200×g. Platelet-rich-plasma (PRP) was transferred to a tube containing 10× acid citrate dextrose solution (ACD) (2.5% sodium citrate, 1.5% citric acid, and 2% D-glucose) and apyrase (0.02 U/mL), and centrifuged at 2000×g. Platelet count was adjusted to 3×10^8 platelets/mL with Tyrode's buffer for all studies.
A lumi-aggregometer (Chrono-log model 700D) was used to measure platelet aggregation under stirring conditions (1100 rpm) at 37° C. Prior to agonist stimulation platelets were incubated with a preselected PUFA or oxylipin for 10 minutes.

VASP (serine 157) = test: VASP phosphorylation in human platelets; type: cell-based; details: 1 min
Experimental: Washed platelets were treated with PUFA or PUFA metabolite (12(S)-HETrE or compound IIc) for one minute, then directly lysed in 5× Laemmeli sample buffer (1.5 M Tris-HCl, pH 6.8, glycerol, 5% β-mercaptoethanol, 10% sodium dodecyl sulfate (SDS), and 1% bromophenol blue). The samples were boiled for five minutes and then run on a 10% SDS-PAGE gel. The levels of total and phospho-VASP (serine 157) were quantified by Western Blot using an Odyssey imaging system (LI-CoR).

adenylyl cyclase = test: LC/MS quantification of cAMP in washed human platelets; type: cell-based; details: 25 μM, 1 min; platelets pre-treated with 10 μM IBMX; vs DMSO
Experimental: Washed human platelets were treated with the specific ligand or vehicle control for 1 min at room temperature, and quenched with an equal volume of ice-cold 2× platelet lysis buffer containing protease and phosphatase inhibitors. Lysed platelet samples were centrifuged at 14,000 g for 7 min at 4° C. to pellet cytoskeleton and the supernatant was stored in −80° C.
To prepare the sample for LC/MS injection, 200 μL of the supernatant was spiked with 400 pg of adenosine-3′,5′-cyclic-13C5 monophosphate (^13C5-cAMP) (Toronto Research Chemicals, Inc.), an internal standard, and 600 μL of LC/MS grade acetonitrile (Fisher Scientific). The sample was briefly vortexed and centrifuged at 14,000 rpm for 10 min at 4° C. The supernatants were then air dried in a SpeedVac and reconstituted in 200 μL of LC/MS grade water and centrifuged at 10,000 rpm for 5 min at 4° C. and used for LC/MS injection.
The separation and detection of cAMP was performed on a Waters ACQUITY UPLC system equipped with a Xevo Triple Quadrupole Mass Spectrometer (TQ-S MS/MS). […]
The mass spectrometer was operated with an ESI source in positive mode. […] Cyclic AMP (cAMP) was quantitated using ^13C5-cAMP as the internal standard. […]

Tail bleeding assay = type: in vivo, mouse; details: heparin-treated mice; data not shown
Experimental: Mice were anesthetized with ketamine/xyzaline and placed on a heating pad in prone position, the tip of the tail (5 mm) was excised with a sterile scalpel, and the tails were immediately immersed into isotonic saline solution (0.9%) warmed to 37° C. Bleeding time was assessed until cessation of blood flow from the tail for 1 minute.

Rap1 = Rap1 activation in washed platelets (Rap1-GTP pull-down, Western blot); type: cell-based, mouse; details: 10 μM DGLA, PAR4-AP 50, 100, 200 μM
Experimental: Following 1 minute of stimulation platelets were lysed with 2× platelet lysis buffer (100 mM Tris HCl, pH 7.4, 150 mM NaCl, 2% IGEPAL, 1% sodium deoxycholate, and 0.05% SDS) containing protease and phosphatase inhibitors. The cytoskeleton was pelleted by centrifugation at 14000×g for 7 minutes at 4° C. Active Rap1 was selectively captured from the supernatant by incubating GST-tagged Rap1 binding domain of RalGDS conjugated to glutathione sepharose beads for one hour on a nutator at 4° C. The beads were then washed 5 times with IP buffer and resuspended in 2× Laemmeli reducing buffer (62.5 mM Tris-HCl, pH 6.8, 2% SDS, 25% glycerol, 0.01% bromophenol blue, 5% β-mercaptoethanol). The samples were boiled for 10 minutes and then loaded onto a 10% SDS-polyacrylamide gel electrophoresis (PAGE) gel. Western blots were performed using a Rap1 antibody and quantified with a LI-COR imager.

[2] = test system: thrombus formation (platelet and fibrin) in cremaster arterioles; test: Laser-induced cremaster arteriole thrombosis model; type: in vivo, mouse; details: vs vehicle
Experimental: Wild type (WT) or 12-LOX^−/− mice (12 weeks of age) were anesthetized by intraperitoneal injection of ketamine/xylazine (100 mg/kg) prior to the exposure of the cremaster muscle arterioles under a dissecting microscope with constant perfusion of preheated bicarbonate-buffered saline (Reheman et al., J Thromb Haemost 3:875-883, 2005; Reheman et al., Blood 113:1809-1817, 2009; Wang et al., J Clin Invest 124:4281-4293, 2014). Anti-platelet (DyLight 488 anti-GPIb, 1 μg/g) and anti-fibrin (Alexa Fluor 647, 0.3 μg/g) antibodies were administered via jugular vein catheter prior to intravital microscopy. DGLA (50 mg/kg) or DMSO (vehicle control) were dissolved in a formulation of 5% DMSO and 45% PEG300 in sterile 1×PBS and then intravenously injected into mice 10 minutes prior to induction of thrombosis. 12(S)-HETrE (6 mg/kg) or equal volume of DMSO (vehicle control) was also intravenously injected into mice 10 minutes prior to induction of thrombosis. Multiple independent thrombi were induced in the arterioles (30-50 μm diameter) in each mouse by a laser ablation system (Ablate! photoablation system; Intelligent Imaging Innovations, Denver, Colo., USA). Images of thrombus formation were acquired in real-time under 63× water-immersion objective with a Zeiss Axio Examiner Z1 fluorescent microscope equipped with solid laser launch system (LaserStack; Intelligent Imaging Innovations) and high-speed sCMOS camera. All captured images were analyzed on Slidebook (Intelligent Imaging Innovations Inc., Denver, Colo., USA).

platelets = details: cited from earlier work
[3] = 12-LOX−/− mouse platelets, 25 μM 12-LOX oxylipin, EC80 PAR4-AP (200 μM) or collagen (2 or 5 μg/mL), vs vehicle
[4] = WT mouse platelets, 25 μM 12-LOX oxylipin, EC80 PAR4-AP (100 μM) or collagen (5 μg/mL), vs vehicle
[5] = 12-LOX−/− mouse platelets, 10 μM PUFA, EC80 PAR4-AP (200 μM) or collagen (2 or 5 μg/mL), vs vehicle
[6] = WT mouse platelets, 10 μM PUFA, EC80 PAR4-AP (100 μM) or collagen (5 μg/mL), vs DMSO
[7] = WT mice, 50 mg/kg i.v. 10 min before laser injury

In the case of CC#CCC(C)[C@H](O)/C=C/[C@@H]1[C@H]2C/C(=C/CCCC(=O)O)C[C@H]2C[C@H]1O (some centres unmarked) [iloprost], the “[35S]GTPγS binding to immunoprecipitated Gαs” value (Gαs; iloprost 10 μM) is reported as “significant increase in [^35S]GTPγS binding” and the PAR4-AP-mediated platelet aggregation (washed human platelets) is reported as “unable to inhibit PAR4-AP-mediated platelet aggregation”.
For CCCCC/C=C\CC(O)/C=C/C=C\C/C=C\CCCC(=O)O (centres unmarked) [Compound 12-HETE, 12-hydroxy-5Z,8Z,10E,14Z-eicosatetraenoic], the platelet aggregation [1, 3] was “no decrease in collagen- or PAR4-AP-mediated platelet aggregation” and the platelet aggregation [1, 4] was “no decrease in collagen- or PAR4-AP-mediated platelet aggregation”.
For CCCCC/C=C\CC(/C=C/C=C\CCCCCCC(=O)O)OO (centres unmarked) [Compound 12-HpETrE], the “VASP phosphorylation (S157)” value (VASP (serine 157); 25 μM, vs DMSO) was “enhanced VASP phosphorylation”, the “[35S]GTPγS binding to immunoprecipitated Gαs” value (Gαs; 25 μM) was “significant increase in [^35S]GTPγS binding” and the “level of intracellular cAMP” value (adenylyl cyclase) was “significant increase in the level of intracellular cAMP”.
For CC/C=C\C/C=C\CC(O)/C=C/C=C\C/C=C\CCCC(=O)O (centres unmarked) [Compound 12-HEPE, 12-hydroxy-5Z, 8Z, 10E, 14Z, 17Z-eicosapentaenoic acid], the platelet aggregation [1, 3] was “did not inhibit collagen- or PAR4-AP-induced aggregation” and the platelet aggregation [1, 4] was “did not inhibit collagen- or PAR4-AP-induced aggregation”.
With heparin the bleeding time (Tail bleeding assay) was “severe bleeding diathesis”.
In the case of CCCCC/C=C\C/C=C\CCCCCCCC(=O)O [LA, linoleic acid], the platelet aggregation [1, 5] is reported as “no inhibitory effect” and the platelet aggregation [1, 6] is reported as “no inhibitory effect”.
For CCCCC/C=C\C/C=C\C/C=C\CCCCCCC(=O)O [DGLA, Dihomo-γ-linolenic acid], the “VASP phosphorylation (S157)” value (VASP (serine 157); DGLA 10 μM, vs DMSO) was “enhanced VASP phosphorylation”, the platelet aggregation [1, 5] was “failed to inhibit platelet aggregation” and the platelet aggregation [1, 6] was “significant inhibition of aggregation”. For the same molecule, the “Rap1 activation (Rap1-GTP)” value (Rap1; 12-LOX−/− mouse platelets) was “unable to inhibit Rap1 activation”, the “Rap1 activation (Rap1-GTP)” value (Rap1; WT mouse platelets) was “inhibited Rap1 activation at all concentrations of PAR4-AP tested” and the “fibrin accumulation in thrombi” value ([2]; 12-LOX−/− mice, 50 mg/kg i.v.) was “did not differ”. For the same molecule, the “platelet accumulation in thrombi” value ([2]; 12-LOX−/− mice, 50 mg/kg i.v.) was “did not differ”, the “fibrin accumulation at the site of injury” value [2, 7] was “but not fibrin accumulation” and the “platelet accumulation at the site of injury” value [2, 7] was “significant reduction in platelet”. For the same molecule, the “platelet aggregation ex vivo” value (platelets; literature (Farrow and Willis 1975; Kernoff 1977; Willis 1974)) was “inhibit platelet aggregation ex vivo” and the “ex vivo aggregation of platelets after dosing” value (platelets; platelets from humans, baboons, rabbits and rats that received daily oral doses) was “significant reduction in ex vivo aggregation”.
For CCCCC/C=C\C/C=C\C/C=C\CCCCCSc1n[nH]c(=O)[nH]1 [Compound IIc, 5-(((6Z,9Z,12Z)-octadeca-6,9,12-trien-1-yl)thio)-2,4-dihydro-3H-1,2,4-triazol-3-one], the “VASP phosphorylation (S157)” value (VASP (serine 157); compound IIc, concentrations not given) was “dose-dependent phosphorylation of VASP”.
In the case of CCCCC/C=C\C/C=C\C/C=C\C/C=C\CCCC(=O)O [AA], the platelet aggregation [1, 5] is reported as “no inhibitory effect” and the platelet aggregation [1, 6] is reported as “no inhibitory effect”.
